Test results published in patent US20120083473A1, “TREATMENT OF CONDITIONS BY TOLL-LIKE RECEPTOR MODULATORS” (priority 2010, published 2012).

How the values were obtained:
human monocytes (Mo) [1] = test: Cross-tolerance toward TLR ligands in human monocytes (gene expression); type: cell-based
Description: To evaluate the effects of TMX on human cell activation, monocytes were isolated from buffy coats obtained from four different healthy donors. With respect to macrophage tolerance, cells were treated with Compound 2 (10 microM) up to 20 hours and then re-challenged with agonists/ligands of different TLRs (TLR2, TLR4, TLR5, TLR9, TLR7, etc. . . . ), including the TLR7 unconjugated ligand 1V209 (free pharmacophore) at a concentration of 10 microM.
(§1) Cell Culture and treatments. Monocytes (Mo) were obtained from buffycoats collected from healthy donors as previously described (Porta C et al, PNAS 2009). Cells were incubated in RPMI 1640 medium, containing 10% fetal bovine serum, 2 mM glutamine and 100 U/ml of penicillin-streptomycin. The concentrations for the different treatments were as follows: LPS (100 ng/ml) (Lipopolysaccharide from Salmonella Abortus Equi S-form, Alexis), CpG (1 microg/ml), Pam3CSK (2 microg/ml), Poly I:C (10 microg/ml), Loxorubine (100 microM), flagellin (100 ng/ml). To induce TMX tolerance, cells were incubated in the presence of TMX (10 microM) for 20 hrs, washed and maintained in RPMI medium for 2 hrs and then re-challenged with TMX (10 microM) for 4 hrs. To induce TMX-tolerization (T/M) cells were treated with TMX for 20 hrs, washed and then maintained in medium for additional 6 hours, without TMX re-challenge. To induce M1-activation cells were incubated in medium for 20 hrs, washed, left in medium for 2 hrs and finally stimulated with TMX (10 microM) for 4 hrs. Control cells (M/M) were cultured in medium for the entire period of the experiment. For gene expression analysis, total RNA was extracted from TMX treated and untreated cells with trizol (Invitrogen), according to the manufacturer's instructions. To analyze cytokines and chemokines production supernatants were collected 24 hrs after the second challenge with TMX.
Real-Time PCR. Total RNA was purified as previously described. Briefly, reverse transcription from 1 microgram of RNA was performed using a cDNA Archive kit (Applied Biosystem, NJ, USA). Real time PCR was performed using Power Syber Green PCR Master Mix (Applied Biosystem, NJ, USA) and detected by 7900HT Fast Real-Time System (Applied Biosystem, NJ, USA). Data were processed using the SDS2.2.2 software (Applied Biosystem, NJ, USA). Results were normalized to the expression of the housekeeping gene 8-actin and then expressed as folds of upregulation, with respect to the control cell population.

[2] = tested on: murine peritoneal macrophages (PEC); test: Dose-response of M1 and M2 gene expression in PEC (RT PCR); type: cell-based, mice
Description: A third group of experiments was performed to investigate the dose-response effects of TMX, its potency as compared to classical inflammatory signals (e.g. LPS) and the activation of selected transcription factors playing an established role in tolerance, as well as in the induction of M1/M2 polarized inflammatory programs. PECs treated for 4 hours or 20 hours with 100 ng/mlof LPS or increased concentrations of TMX or 1V209 were analyzed by RT PCR for the expression of representative M1 (TNFα, IL-12p40) and M2 (IL-10, TGFβ) genes. […] In this experiment, as compared to 1V209, TMX is a lower inducer of M1 genes expression.
Cell Culture and treatments. Peritoneal exudate cells (PEC) were harvested from mice injected with 1 ml of 3% (w/v) thioglycollate medium (Difco, Detroit, Mich.) 4 days prior to isolation. PECs were incubated in RPMI 1640 medium, containing 10% fetal bovine serum, 2 mM glutamine and 100 U/ml of penicillin-streptomycin. The concentration for the different treatments were as follows: LPS (100 ng/ml) (Lipopolysaccharide from Salmonella Abortus Equi S-form, Alexis), CpG (1 μg/ml), Pam3CSK (2 μg/ml), Poly I:C (10 μg/ml), Loxorubine (100 μM), flagellin (100 ng/ml) IL-1β (20 ng/ml), TNF (20 ng/ml), IL-10 (20 ng/ml) (Peprotech), IFNγ (200 U/ml) (Peprotech). To induce TMX tolerance, cells were incubated in the presence of TMX (10 μM or 1 μM) for 20 hrs, washed and maintained in RPMI medium for 2 hrs and then re-challenged with TMX (10 μM) for 4 hrs. To induce TMX-tolerization (T/M) cells were treated with TMX for 20 hrs, washed and then maintained in medium for additional 6 hours, without TMX re-challenge. To induce M1-activation, cells were incubated in medium for 20 hrs, washed, left in medium for 2 hrs and finally stimulated with TMX (10 μM) for 4 hrs. Control cells (M/M) were cultured in medium for the entire period of the experiment. For gene expression analysis, total RNA was extracted from TMX treated and untreated cells with trizol (Invitrogen), according to the manufacturer's instructions. To analyze cytokines and chemokines production supernatants were collected 24 hrs after the second challenge with TMX.
Real-Time PCR. Total RNA was purified as previously described. Briefly, reverse transcription from 1 μg of RNA was performed using cDNA Archive kit (Applied Biosystem, NJ, USA). Real time PCR was performed using Power Syber Green PCR Master Mix (Applied Biosystem, NJ, USA) and detected by 7900HT Fast Real-Time System (Applied Biosystem, NJ, USA). Data were processed using the SDS2.2.2 software (Applied Biosystem, NJ, USA). Results were normalized to the expression of the housekeeping gene β-actin and then expressed as folds of upregulation, with respect to the control cell population.

human monocytes (Mo) [3] = test: Cytokine/chemokine secretion by TMX-tolerant human monocytes (ELISA); type: cell-based
Description: as §1
ELISA. Cell-free supernatants were tested by ELISA for the indicated cytokines/chemokines. Human TNF-alpha, IL-6, IL-1beta, IL-10, CCL17 and CCL22 ELISA kits were purchased from R&D Systems (Minneapolis, Minn.).

[4] = TMX-tolerized cells re-challenged with TMX or 1V209

COCCOc1nc(N)c2nc(O)n(Cc3ccc(C(=O)NCCOCCOCCOCCOCCOCCOCCn4cc(CCC(=O)O)nn4)cc3)c2n1 [Compound 2]
TNFalpha, IL-1 beta, IL-6 and IL-12 gene expression in response to TLR ligands (human monocytes (Mo) [1]; Mo tolerized by 20 hours pre-treatment, excluding Pam): inability to up-regulate
down-regulation of M1 marker IL-12p40 (human monocytes (Mo) [1]; TMX pretreatment, stimulation through TLRs other than TLR7): ~10 fold
M2 gene induction, CCL17 in particular (human monocytes (Mo) [1]; TMX treatment, TLR agonist re-challenge): strongly enhanced
Th2-recruiting chemokines genes (CCL17, CCL22) on TLR engagement (human monocytes (Mo) [1]; tolerized Mo, but not IL-10): trigger the expression
most potent dose tested for the induction of both M1 and M2 genes ([2]; PEC): 30 µM
induction of both M1 and M2 gene expression ([2]; PECs treated 4 hours or 20 hours with increased concentrations): dose-dependent induction
induction of M1 genes expression as compared to 1V209 ([2]; PECs, 4 or 20 hours): lower inducer
levels of IL-10 in the supernatant of TMX-tolerant monocytes (human monocytes (Mo) [3]): decreased
secretion of selected M2 markers (CCL17 and CCL22) (human monocytes (Mo) [3]; TMX-tolerized Mo from 2 out of 4 healthy donors): significantly augmented
CCL17 and CCL22 secretion (human monocytes (Mo) [3]; [4]): induction
TNFalpha and IL-6 secretion (human monocytes (Mo) [3]; [4]): inhibition
IL-10 production by Compound 2-conditioned cells (human monocytes (Mo) [3]; as stated in comparison of human and mouse data): increased
TNF and IL-6 secretion (human monocytes (Mo) [3]; cells tolerized with TMX and re-challenged with TLR agonists, except for LPS): decreased
IL-1beta production in TMX-tolerized cells (human monocytes (Mo) [3]; re-challenged with TLR agonists): all TLR agonists promote IL-1beta production
